In paper PMC10041525, “New Dual Inhibitors of Bacterial Topoisomerases with Broad-Spectrum Antibacterial Activity and In Vivo Efficacy against Vancomycin-Intermediate Staphylococcus aureus” (Journal of Medicinal Chemistry, 2023):
Converted amounts (≈) assume the structure as drawn. Like-named read-outs stand apart in the source and are kept apart here.

System: 100 A. baumannii strains (50 MDR, 50 non-MDR)
Test: MIC broth microdilution at IHMA Europe, panel of 100 strains
Type: cell-based
Conditions: Acinetobacter baumannii, read-out: MIC

Work on Cc1[nH]c(C(=O)Nc2nc3c(N4[C@@H]5CC[C@H]4COC5)cc(C(=O)O)cc3s2)c(Cl)c1Cl [7h, 4-((1R,5S)-3-Oxa-8-azabicyclo[3.2.1]octan-8-yl)-2-(3,4-dichloro-5-methyl-1H-pyrrole-2-carboxamido)benzo[d]thiazole-6-carboxylic Acid] yielded an MIC (A. baumannii IHMA 1769393, Lithuania 2018, Non-MDR) of 2 µg/mL (≈ 4.15 µM), an MIC (A. baumannii IHMA 1769782, Israel 2018, MDR) of 2 µg/mL (≈ 4.15 µM) and an MIC (A. baumannii IHMA 1769910, Israel 2018, Non-MDR) of 4 µg/mL (≈ 8.31 µM). It also gave an MIC (A. baumannii IHMA 1790317, Czech Republic 2018, Non-MDR) of 2 µg/mL (≈ 4.15 µM), an MIC (A. baumannii IHMA 1790916, Romania 2018, Non-MDR) of 1 µg/mL (≈ 2.08 µM) and an MIC (A. baumannii IHMA 1791877, Israel 2018, MDR) of 2 µg/mL (≈ 4.15 µM). It also gave an MIC (A. baumannii IHMA 1792961, Jordan 2018, MDR) of 2 µg/mL (≈ 4.15 µM), an MIC (A. baumannii IHMA 1795669, Tunisia 2018, Non-MDR) of 1 µg/mL (≈ 2.08 µM) and an MIC (A. baumannii IHMA 1814276, Lebanon 2018, MDR) of 2 µg/mL (≈ 4.15 µM). For the same compound, the MIC (A. baumannii IHMA 1815198, Kuwait 2018, MDR) was 2 µg/mL (≈ 4.15 µM), the MIC (A. baumannii IHMA 1815856, Israel 2018, MDR) was 2 µg/mL (≈ 4.15 µM) and the MIC (A. baumannii IHMA 1821468, South Africa 2018, Non-MDR) was 2 µg/mL (≈ 4.15 µM). The MIC (A. baumannii IHMA 1829500, Georgia 2018, Non-MDR) was 2 µg/mL (≈ 4.15 µM), the MIC (A. baumannii IHMA 1830924, United Kingdom 2018, Non-MDR) was 4 µg/mL (≈ 8.31 µM) and the MIC (A. baumannii IHMA 1849819, Kuwait 2018, MDR) was 4 µg/mL (≈ 8.31 µM). It also gave an MIC (A. baumannii IHMA 1849829, Kuwait 2018, Non-MDR) of 4 µg/mL (≈ 8.31 µM), an MIC (A. baumannii IHMA 1857118, Slovenia 2018, Non-MDR) of 4 µg/mL (≈ 8.31 µM) and an MIC (A. baumannii IHMA 1863631, France 2018, Non-MDR) of 2 µg/mL (≈ 4.15 µM). The MIC (A. baumannii IHMA 1870054, United States 2018, Non-MDR) was 2 µg/mL (≈ 4.15 µM), the MIC (A. baumannii IHMA 1884428, Italy 2018, Non-MDR) was 4 µg/mL (≈ 8.31 µM) and the MIC (A. baumannii IHMA 1884990, Germany 2018, Non-MDR) was 1 µg/mL (≈ 2.08 µM). For the same compound, the MIC (A. baumannii IHMA 1900538, Turkey 2018, Non-MDR) was 4 µg/mL (≈ 8.31 µM), the MIC (A. baumannii IHMA 1913773, Kenya 2018, Non-MDR) was 2 µg/mL (≈ 4.15 µM) and the MIC (A. baumannii IHMA 1926285, Qatar 2018, Non-MDR) was 2 µg/mL (≈ 4.15 µM). It also gave an MIC (A. baumannii IHMA 1926288, Qatar 2018, MDR) of 1 µg/mL (≈ 2.08 µM), an MIC (A. baumannii IHMA 1957343, Portugal 2019, Non-MDR) of 4 µg/mL (≈ 8.31 µM) and an MIC (A. baumannii IHMA 1963732, Turkey 2019, MDR) of 2 µg/mL (≈ 4.15 µM). The MIC (A. baumannii IHMA 1967860, Spain 2019, Non-MDR) was 8 µg/mL (≈ 16.6 µM), the MIC (A. baumannii IHMA 1971673, Latvia 2019, MDR) was 2 µg/mL (≈ 4.15 µM) and the MIC (A. baumannii IHMA 1975075, Israel 2019, Non-MDR) was 2 µg/mL (≈ 4.15 µM). It also gave an MIC (A. baumannii IHMA 1977077, Kuwait 2019, Non-MDR) of 4 µg/mL (≈ 8.31 µM), an MIC (A. baumannii IHMA 1983151, Greece 2019, MDR) of 2 µg/mL (≈ 4.15 µM) and an MIC (A. baumannii IHMA 1984665, Lithuania 2019, MDR) of 2 µg/mL (≈ 4.15 µM). The MIC (A. baumannii IHMA 1986678, Turkey 2019, Non-MDR) was 4 µg/mL (≈ 8.31 µM), the MIC (A. baumannii IHMA 1986738, Turkey 2019, MDR) was 2 µg/mL (≈ 4.15 µM) and the MIC (A. baumannii IHMA 1987162, Croatia 2019, MDR) was 2 µg/mL (≈ 4.15 µM). It also gave an MIC (A. baumannii IHMA 1993615, Turkey 2019, MDR) of 1 µg/mL (≈ 2.08 µM), an MIC (A. baumannii IHMA 1994284, Italy 2019, MDR) of 2 µg/mL (≈ 4.15 µM) and an MIC (A. baumannii IHMA 1995161, Czech Republic 2019, Non-MDR) of 2 µg/mL (≈ 4.15 µM). The MIC (A. baumannii IHMA 1997936, Morocco 2019, Non-MDR) was 2 µg/mL (≈ 4.15 µM), the MIC (A. baumannii IHMA 1999178, Belgium 2019, Non-MDR) was 2 µg/mL (≈ 4.15 µM) and the MIC (A. baumannii IHMA 2003279, Turkey 2019, MDR) was 4 µg/mL (≈ 8.31 µM). It also gave an MIC (A. baumannii IHMA 2014367, Jordan 2019, Non-MDR) of 1 µg/mL (≈ 2.08 µM), an MIC (A. baumannii IHMA 2014931, South Africa 2019, Non-MDR) of 4 µg/mL (≈ 8.31 µM) and an MIC (A. baumannii IHMA 2019315, Romania 2019, Non-MDR) of 4 µg/mL (≈ 8.31 µM). The MIC (A. baumannii IHMA 2020360, Croatia 2019, MDR) was 2 µg/mL (≈ 4.15 µM), the MIC (A. baumannii IHMA 2031511, Greece 2019, Non-MDR) was 1 µg/mL (≈ 2.08 µM) and the MIC (A. baumannii IHMA 2031524, Greece 2019, MDR) was 2 µg/mL (≈ 4.15 µM). For the same compound, the MIC (A. baumannii IHMA 2034657, Tunisia 2019, Non-MDR) was 4 µg/mL (≈ 8.31 µM), the MIC (A. baumannii IHMA 2035089, Serbia 2019, MDR) was 2 µg/mL (≈ 4.15 µM) and the MIC (A. baumannii IHMA 2035134, Serbia 2019, Non-MDR) was 2 µg/mL (≈ 4.15 µM). The MIC (A. baumannii IHMA 2038976, Hungary 2019, MDR) was 2 µg/mL (≈ 4.15 µM), the MIC (A. baumannii IHMA 2051503, Serbia 2019, MDR) was 2 µg/mL (≈ 4.15 µM) and the MIC (A. baumannii IHMA 2058329, Slovenia 2019, Non-MDR) was 4 µg/mL (≈ 8.31 µM). The MIC (A. baumannii IHMA 2065587, France 2019, Non-MDR) was 1 µg/mL (≈ 2.08 µM), the MIC (A. baumannii IHMA 2099294, United Kingdom 2019, Non-MDR) was 2 µg/mL (≈ 4.15 µM) and the MIC (A. baumannii IHMA 2129256, Qatar 2019, Non-MDR) was 4 µg/mL (≈ 8.31 µM). It also gave an MIC (A. baumannii IHMA 2154584, Israel 2020, MDR) of 2 µg/mL (≈ 4.15 µM) and an MIC (A. baumannii IHMA 2155340, Kenya 2020, MDR) of 2 µg/mL (≈ 4.15 µM).
